# In US20080214533A1, “Cyclic Iminocarbamates And Their Use” (BAYER HEALTHCARE AG, priority 2004, published 2008):
# pIC50: −log10 of the molar value.
# Molecular target: human factor Xa (FXa) (Homo sapiens, UniProt P00742)
# Test: Determination of the factor Xa inhibition (chromogenic substrate)
# Assay type: biochemical
# Settings: chromogenic substrate Pefachrome FXa, 25° C., extinction at 405 nm
# Experimental: The enzymatic activity of human factor Xa (FXa) is measured using the conversion of a chromogenic substrate specific for FXa. Factor Xa cleaves p-nitroaniline from the chromogenic substrate. The determinations are carried out in microtitre plates as follows:
# The test substances, in various concentrations, are dissolved in DMSO and incubated for 10 minutes at 25° C. with human FXa ([…] dissolved in 50 mmol/l of Tris buffer [C,C,C-tris(hydroxymethyl)aminomethane], 150 mmol/l of NaCl, 0.1% BSA [bovine serum albumin], pH=8.3). Pure DMSO is used as control. The chromogenic substrate (150 μmol/l Pefachrome® FXa from Pentapharm) is then added. After an incubation time of 20 minutes at 25° C., the extinction at 405 nm is determined.
# human factor Xa (FXa), sequence (P00742 235-488 limits assumed): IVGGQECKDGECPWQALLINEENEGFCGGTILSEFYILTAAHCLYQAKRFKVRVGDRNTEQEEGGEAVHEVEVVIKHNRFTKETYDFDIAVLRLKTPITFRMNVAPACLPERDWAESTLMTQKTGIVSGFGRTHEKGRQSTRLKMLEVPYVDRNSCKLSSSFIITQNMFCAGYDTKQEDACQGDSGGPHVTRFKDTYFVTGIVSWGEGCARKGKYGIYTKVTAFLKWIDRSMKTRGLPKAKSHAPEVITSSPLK
# human factor Xa (FXa), sequence (P00742 41-179 partner limits assumed): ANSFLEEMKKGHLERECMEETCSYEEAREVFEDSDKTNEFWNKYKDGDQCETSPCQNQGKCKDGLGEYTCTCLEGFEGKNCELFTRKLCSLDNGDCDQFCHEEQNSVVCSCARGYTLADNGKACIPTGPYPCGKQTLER
row,Compound,pIC50
1,"N=C1OCCN1c1ccc(NC(=O)c2nccnc2C(=O)Nc2ccc(Cl)cn2)cc1 [Example 1, N-(5-Chloropyridin-2-yl)-N′-[4-(2-imino-1,3-oxazolidin-3-yl)phenyl]pyrazine-2,3-dicarboxamide methanesulphonate]",9.19
2,"N=C1OCCCN1c1ccc(NC(=O)c2nccnc2C(=O)Nc2ccc(Cl)cn2)cc1 [Example 5, N-(5-Chloropyridin-2-yl)-N′-[4-(2-imino-1,3-oxazinan-3-yl)phenyl]pyrazine-2,3-dicarboxamide methanesulphonate]",8.59
3,"Cc1nc(C(=O)Nc2ccc(Cl)cn2)c(C(=O)Nc2ccc(N3CCOC3=N)cc2)s1 [Example 12, N^4-(5-Chloropyridin-2-yl)-N^5-[4-(2-imino-1,3-oxazolidin-3-yl)phenyl]-2-methyl-1,3-thiazole-4,5-dicarboxamide methanesulphonate]",9.52
4,"Cc1nc(C(=O)Nc2ccc(N3CCOC3=N)cc2)c(C(=O)Nc2ccc(Cl)cn2)s1 [Example 13, N^5-(5-Chloropyridin-2-yl)-N^4-[4-(2-imino-1,3-oxazolidin-3-yl)phenyl]-2-methyl-1,3-thiazole-4,5-dicarboxamide methanesulphonate]",8.36
